Here are results for one compound from US10975056B2 (GlaxoSmithKline Intellectual Property Development Limited, priority 2016, dated 2021).

Assay [1] deals with erythroid progenitor cells (EPCs). As to the kind of experiment: Cell growth analysis in day 7 EPCs (Cell Titer-Glo). The format is cell-based. The conditions noted are these: Homo sapiens, read-out: cell growth inhibition by 50%, average pGI50 (converted), 5 days. The method, then: Day 7 EPCs were cultured in duplicate plates with serially diluted Compound A for 5 days at 37° C. Wells were then analyzed for either induction of fetal hemoglobin (HbF,HbF ELISA) or cell growth (Cell Titer-Glo). In both cases, signal was normalized to vehicle-control treated cells.
All donors provided written informed consent for use of their samples, and the collection and use of the samples received institutional review board approval. All cryopreserved human bone marrow CD34+ cells used here were obtained from AlICells (Emeryville, Calif.) and were generally from different donors. The CD34+ cells were cultured to generate EPCs at day 7. […]
At the time of compound treatment, frozen day 7 EPCs prepared as described above were thawed, washed once and re-suspended in complete culture media as described above with the exception of an increase of rhEPO to 3 U/mL. Cells were counted and diluted to […] for plating into assay plates. […]
Cell growth assays were performed on cell culture plates after 5 days incubation at 37° C. with 5% CO2. […] The plates were then incubated at room temperature for 10 min prior to reading on ViewLux 1430 (Perkin Elmer) using a luminescence protocol. Average reading of control wells (16 wells in column 6 of each assay plate) containing DMSO only were used as the basal level for normalization. […]

For assay [2], the system named is human hemoglobin transgenic mice (sickle cell disease model). As to the kind of experiment: Sickle cell mouse model, fetal hemoglobin induction in vivo. The conditions noted are these: for increase in % F RBCs / increase in % F reticulocytes: 2 week dose period; for increase in % HbF protein: two weeks. The text has this: A mouse model of sickle cell disease was utilized to measure the in vivo efficacy of Compound A previously shown to have potent in vitro activity in human primary erythroid progenitor cells derived from normal bone marrow or sickle cell patient peripheral blood mononuclear cells.
The in vivo activity of Compound A was investigated in the sickle cell mouse model in accordance with US/UK standards of animal care.
Male and female human hemoglobin transgenic mice [B6; 129-Hbatm1(HBA)Tow/Hbbtm2(HBG1,HBB*)Tow/J Mice (Jackson Laboratories, Me.)] were approximately 6-8 weeks old and weighed approximately 15-25 grams at the initiation of the studies. To the extent possible, groups were gender balanced and comprised of 6 mice.
Mice were administered vehicle (10% DMA/90% PEG400), 10 or 50 mg/kg Compound A twice daily (BID) by oral route five days per week, over a two week period.
At the end of the dosing period, mice were euthanized by CO2 asphyxiation and blood from the vena cava was collected into EDTA tubes for fetal hemoglobin analysis. % HbF protein was determined by high performance liquid chromatography and % F cells (HbF expressing erythrocytes) were determined by flow cytometry. The mouse monoclonal anti-human HbF antibody conjugated to APC (Life Technologies, Grand Island, N.Y.) was used to identify HbF expressing erythroid cells. The nuclear dye, syto16, (Life Technologies) was used to separate the reticulocyte and RBC populations. Protein and cellular data were collected on the Bio-Rad D10 analyzer (Bio-Rad, Benicia, Calif.) and the FACs Canto I (BD BioSciences, San Jose, Calif.) respectively. Flow cytometry data was analyzed with Flowjo v7 software (Treestar, Inc Ashland. Oreg.). Group mean and standard deviation were determined for the control and treatment groups. Data were graphed and analyzed using 1-Way ANOVA with Tukey post test (Graphpad Prism v5 [La Jolla, Calif.]).

The subject of assay [3] is CpG sites in or near the promoter regions of HBG1 and HBG2 gene loci. The assay is described as follows: Bisulfite sequence analysis of HBG1/HBG2 DNA methylation in EPCs. The conditions noted are these: EPCs treated for 3 days, average of nine sites. It counts as cell-based, human. The method, then: To assay the effect of Compound A on DNA methylation, EPCs treated for 3 days with Compound A were harvested and genomic DNA was bisulfite sequenced. Methylation of nine CpG sites in or near the promoter regions of HBG1 and HBG2 gene loci were selected and analyzed based on their previous characterization as sites of DNMT1 methylation during erythropoiesis (Mabaera et al. Blood: 110 (4). 2007).
Bisulfite Sequence Analysis
Genomic DNA was extracted in duplicate from Day 7 EPCs cultured at 37° C. with 5% CO2 and 5% O2 for 3 days in the presence of compound using a ZYMO gDNA kit (Zymo Research, Irvine, Calif.). The isolated DNA was bisulfite converted using a Zymo EZ DNA Methylation Kit. Primer sets for Bisulfite treated regions within the HBG1 and HBG2 were designed using ABI Methyl Primer Express Software. Analyzed regions included 9 previously described sites of DNMT1-dependent DNA methylation (Mabaera et al. Blood: 110 (4). 2007). DNA was further amplified on the fluidigm and QC'd using the Agilent bio-analyzer. MiSeq was performed using the IIlumina system and the output was Analyzed using ArrayStudio v8 and CLC-GWB v8.1.

With `CCc1c(C#N)c(SC(C(N)=O)c2ccccc2)nc(N(C)C)c1C#N` (centres unmarked) [Compound A, 2-{[3,5-dicyano-6-(dimethylamino)-4-ethylpyridin-2-yl]sulfanyl}-2-phenylacetamide], in assay [1], the GI50 was 1.26 µM. Moreover, in assay [2] (10 mg/kg BID oral, p<0.001), the “increase in % F RBCs” value is recorded as 6 fold and the “increase in % F reticulocytes” value is 4 fold. In assay [2] (10 mg/kg BID oral, p<0.05), the “increase in % HbF protein” value is reported as 5.4 fold. In assay [2] (50 mg/kg BID oral, p<0.001), the “increase in % F RBCs” value was found to be 8 fold, the “increase in % F reticulocytes” value was 9 fold and the “increase in % HbF protein” value is given as 10.3 fold. Besides, in assay [3], the “decrease in methylation of nine CpG sites compared with vehicle treated cells” value is given as 65±5%.
